# In PMC10471458 (BMB Reports, 2023):
# Target: T1, Glutathione S-transferase omega 1 (mGstO1) (Mus musculus, UniProt O09131)
# T1 sequence (O09131 2-240): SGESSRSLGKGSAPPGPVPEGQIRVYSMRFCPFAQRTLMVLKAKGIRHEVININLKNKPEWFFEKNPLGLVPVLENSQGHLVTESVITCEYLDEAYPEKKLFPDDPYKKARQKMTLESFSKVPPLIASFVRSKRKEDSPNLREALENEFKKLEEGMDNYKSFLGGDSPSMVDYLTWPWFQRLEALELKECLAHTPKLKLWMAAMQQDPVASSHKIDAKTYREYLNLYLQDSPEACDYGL
# Type: biochemical
structure (smiles),measurement,value
"N[C@@H](CCC(=O)N[C@@H](CSCC(=O)c1ccc([N+](=O)[O-])cc1)C(=O)NCC(=O)O)C(=O)O [4-NPG, 4-nitrophenacyl glutathione]",spectrophotometric assay at 305 nm of 4-NPG reduction to 4-nitroacetophenone by,10 U/mg
